For one compound, zone of inhibition and Activity results are on record in ChEMBL document CHEMBL1142614, “An antimicrobial C(14) acetylenic acid from a marine sponge Oceanapia species” (2000).

Assay [1] concerns Saccharomyces cerevisiae. Nature of the assay: Antimicrobial activity against Saccharomyces cerevisiae YAT2296 mutant at 50 ug after 24 hrs. The class given is functional. The settings on record: read-out: IZ.
In another assay the test system is Bacillus subtilis. In words: Antimicrobial activity against Bacillus subtilis at 100 ug after 24 hrs. The class given is functional. The note with it: read-out: IZ.
In assay [2] the test system is Saccharomyces cerevisiae. In words: Antimicrobial activity against Saccharomyces cerevisiae GT160-45C at 100 ug after 24 hrs. The settings on record: read-out: IZ. Format: functional.
The subject of assay [3] is Saccharomyces cerevisiae. Nature of the assay: Antimicrobial activity against Saccharomyces cerevisiae cdc5 mutant at 100 ug after 24 hrs. The settings on record: read-out: IZ. Format: functional.
The test system of assay [4] is Escherichia coli. Nature of the assay: Antimicrobial activity against Escherichia coli at 100 ug after 24 hrs. Format: functional. The settings on record: read-out: IZ.
The test system of assay [5] is Saccharomyces cerevisiae. Nature of the assay: Antimicrobial activity against Saccharomyces cerevisiae YAT2296 mutant at 100 ug after 24 hrs. Format: functional. The note with it: read-out: IZ.
The subject of assay [6] is Saccharomyces cerevisiae. Nature of the assay: Antimicrobial activity against Saccharomyces cerevisiae act1-1 mutant at 50 ug after 24 hrs. The class given is functional. The settings on record: read-out: IZ.
Assay [7] deals with Pseudomonas aeruginosa. In words: Antimicrobial activity against Pseudomonas aeruginosa at 100 ug after 24 hrs. The class given is functional. The settings on record: read-out: IZ.
In assay [8] the test system is Escherichia coli. In words: Antimicrobial activity against Escherichia coli at 50 ug after 24 hrs. The class given is functional. The note with it: read-out: IZ.
For another assay, the system named is Candida albicans. Nature of the assay: Antimicrobial activity against Candida albicans at 100 ug after 24 hrs. Format: functional. The note with it: read-out: IZ.
The test system of assay [9] is Saccharomyces cerevisiae. In words: Antimicrobial activity against Saccharomyces cerevisiae act1-1 mutant at 100 ug after 24 hrs. The note with it: read-out: IZ. Format: functional.
The subject of assay [10] is Staphylococcus aureus. In words: Antimicrobial activity against Staphylococcus aureus at 100 ug after 24 hrs. Format: functional. The settings on record: read-out: IZ.
For another assay, the system named is Penicillium chrysogenum. Nature of the assay: Antimicrobial activity against Penicillium chrysogenum after 24 hrs. The class given is functional, organism-based.
In a further assay the test system is Umbelopsis ramanniana. In words: Antimicrobial activity against Mortierella ramanniana after 24 hrs. Format: functional, organism-based.
The subject of assay [11] is Staphylococcus aureus. Nature of the assay: Antimicrobial activity against Staphylococcus aureus at 50 ug after 24 hrs. The settings on record: read-out: IZ. Format: functional.
Assay [12] deals with Pseudomonas aeruginosa. Nature of the assay: Antimicrobial activity against Pseudomonas aeruginosa at 50 ug after 24 hrs. The class given is functional. The settings on record: read-out: IZ.
For assay [13], the system named is Saccharomyces cerevisiae. Nature of the assay: Antimicrobial activity against Saccharomyces cerevisiae cdc5 mutant at 50 ug after 24 hrs. The note with it: read-out: IZ. The class given is functional.

Each structure is given as a SMILES string. The source made the active and inactive calls. The rule behind the calls is not given here.

On to `CC/C=C/C#C/C=C/C#CCCCC(=O)O`, for which the zone of inhibition at 50 µg/disc with Saccharomyces cerevisiae [1] turned out to be 6.5 mm; in the assay with Saccharomyces cerevisiae [6], 9 mm; in the assay on Escherichia coli [8], 8.5 mm; in the assay on Staphylococcus aureus [11], 9.5 mm; with Pseudomonas aeruginosa [12], 8.5 mm; in the assay on Saccharomyces cerevisiae [13] it was 7 mm. Further, the zone of inhibition at 100 µg/disc worked out at 11 mm in the assay with Bacillus subtilis; 6.5 mm with Saccharomyces cerevisiae [2]; 7.5 mm with Saccharomyces cerevisiae [3]; 12 mm in the assay on Escherichia coli [4]; 7 mm in the assay with Saccharomyces cerevisiae [5]; 13 mm in the assay on Pseudomonas aeruginosa [7]. Moreover, the values for the zone of inhibition at 100 µg/disc in the assay with Candida albicans, in the assay on Saccharomyces cerevisiae [9] and with Staphylococcus aureus [10] were 8.5 mm, 10 mm and 13.5 mm, respectively. Also, the result in the assay with Penicillium chrysogenum and in the assay with Umbelopsis ramanniana was inactive.
